These results are taken from patent US20240246946A1, “MODULATORS OF TREX1” (Constellation Pharmaceuticals, Inc., priority 2021, published 2024).

Experiment [1] has as its target T1, full length human TREX1 (Homo sapiens, UniProt Q9NSU2).
T1 construct: N-terminally His-Tev tagged full length human TREX1; made in house; host or cells: E. coli
T1 sequence (Q9NSU2 1-314): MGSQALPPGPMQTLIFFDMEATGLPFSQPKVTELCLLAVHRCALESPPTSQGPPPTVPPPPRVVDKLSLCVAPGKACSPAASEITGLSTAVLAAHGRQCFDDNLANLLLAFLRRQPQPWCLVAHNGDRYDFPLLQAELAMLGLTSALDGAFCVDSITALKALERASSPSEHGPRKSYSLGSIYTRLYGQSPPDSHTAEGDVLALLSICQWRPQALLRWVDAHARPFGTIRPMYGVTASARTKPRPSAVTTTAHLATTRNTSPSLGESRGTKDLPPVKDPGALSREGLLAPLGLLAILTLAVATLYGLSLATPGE
The experiment can be described thus: TREX1 Kinetics Assays (TR-FRET association and dissociation, global fit with Kintek Explorer). The note with it: for residence time: hTREX1, TR-FRET kinetics; for koff: hTREX1, TR-FRET, 25° C., global fit. Format: binding. As to the method:
Compound binding kinetics were assessed using a pair of TR-FRET assays which measure the proportion of protein bound to a biotinylated TREX1 inhibitor (“probe”).
N-terminally His-Tev tagged full length human TREX1 (expressed in E. coli and purified in house), complexed with Eu-W1024-anti-6×His (“Eu”; PerkinElmer) in reaction buffer (50 mM Tris, 150 mM NaCl, 2 mM DTT, 0.1 mg/mL BSA, 0.01% (w/v) Tween-20, 5 mM MgCl2, pH 7.4) was combined with an equal volume of test compound in reaction buffer and incubated at 25° C. Concentrations at this stage were 1 nM TREX1/Eu complex, and four concentrations of compound (diluted from 10 mM stocks in 100% DMSO). At defined time points, 18 μL of this mixture was withdrawn and combined with 2 μL probe to a final concentration of 1 μM probe. After incubating for 30 seconds, 18 μL was withdrawn and combined with 2 μL streptavidin-allophycocyanin (“SA-APC”; PerkinElmer) to a final concentration of 1.5 μM SA-APC. Fifteen μL of this mixture was then immediately transferred to a 384-well Black ProxiPlate Plus (PerkinElmer) and read in an EnVision plate reader (PerkinElmer) measuring fluorescence at 615 nm and 665 nm following excitation w/337 nm laser light. Final concentrations were 0.8 nM TREX1/Eu complex, 0.9 μM probe, and 1.5 μM SA-APC.
N-terminally His-Tev tagged full length human TREX1 (expressed in E. coli and purified in house), complexed with Eu-W1024-anti-6×His (“Eu”; PerkinElmer) in reaction buffer (50 mM Tris, 150 mM NaCl, 2 mM DTT, 0.1 mg/mL BSA, 0.01% (w/v) Tween-20, 5 mM MgCl2, pH 7.4) was combined with an equal volume of test compound in reaction buffer. Concentrations at this stage were 100 nM TREX1/Eu complex and 100 nM test compound (diluted from 10 mM stocks in 100% DMSO). Following an equilibration period of at least an hour at 25° C., this mixture was diluted 100-fold into reaction buffer containing 1 μM probe, and incubated at 25° C. At defined time points, 36 μL of the reaction mixture was withdrawn and combined with 4 μL streptavidin-allophycocyanin (“SA-APC”; PerkinElmer) to a final concentration of 1.5 μM SA-APC. Fifteen μL of this mixture was then immediately transferred to duplicate wells of a 384-well Black ProxiPlate Plus (PerkinElmer) and read in an EnVision plate reader (PerkinElmer) measuring fluorescence at 615 nm and 665 nm following excitation w/337 nm laser light.
The TR-FRET signal, a ratio of 665 nm/615 nm emitted light, was converted to fraction enzyme bound to test compound by normalizing to low signal (no enzyme or test compound) and high signal (no test compound) controls. Data from both association and dissociation experiments were fitted globally using Kintek Explorer software, which computes the rate constants directly.
(In TR-FRET formats the signal depends on donor and acceptor labels being close together.)

For experiment [2], the target named is T1, full length human TREX1. The experiment in a line: hTREX1 Biochemical Assay (fluorescence, dsDNA substrate degradation). The note with it: biochemical, read-out: hTREX1 IC50. The method in brief:
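Cleavage of 60 nM TEX615/quencher-labelled dsDNA in pH 7.4 Tris buffer with 5 mM MgCl2, 1.0% DMSO, run 18 hours at 25° C, EDTA-quenched; fluorescence read-out.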

The structures appear in SMILES notation. Some results are limits rather than exact numbers.

By residence time is commonly meant the mean lifetime of the complex, commonly the reciprocal of the off-rate. As a reminder, the koff is the first-order rate constant of dissociation. Low readings indicate slow dissociation, high ones fast dissociation. As a reminder, the IC50 is the concentration that gives 50% inhibition. Regarding `Cc1ncc(C(c2ccccc2C#N)C(C)c2nc(C(=O)Nc3cnoc3)c(O)c(=O)n2C)cn1` (single isomer, unassigned) [Example 67 D1E2], at full length human TREX1 [1], the residence time amounted to 408 min and the koff was 4.08e-05 s⁻¹. Further, the concentration for half-maximal inhibition (IC50) on full length human TREX1 [2] is < 1 nM.
Regarding `Cc1cnc(C(c2ccccc2C#N)C(C)c2nc(C(=O)Nc3cnoc3)c(O)c(=O)n2C)cn1` (single isomer, unassigned) [Example 46 D1E2], at full length human TREX1 [1], the residence time was 346 min and the koff is 4.82e-05 s⁻¹.
